Source: PubChem BioAssay AID2060601 (Molecular Pharmacology Branch, DTP, NCI, 2025)
Values joined by “and” are separate entries in the source; they are usually repeats but may differ in a detail not shown here. Equal entries are not always repeated. One block for each compound: values may come before it.

System: 874868-142-R-J2-PDC complex spheroids, growth % test/control
Experiment: Anticancer human tumor 874868-142-R-J2-PDC patient-derived head and neck squamous carcinoma cell line growth inhibition [CLK]
Conditions: for viability, T/C: stronger effect = lower value
Summary of the method: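 Multi-cell-type spheroids combined patient-derived tumor cells with HUVEC endothelial cells and human mesenchymal stem cells. Paired agents were dosed in half-log steps down from about clinical Cmax, or from 10 microM where Cmax was unknown.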

[1] = curve of first compound, second compound 0.0316 µM
[2] = curve of first compound, second compound 0.1 µM
[3] = curve of first compound, second compound 0.316 µM
[4] = curve of first compound, second compound 1 µM
[5] = curve of first compound, second compound 3.16 µM
[6] = curve of first compound, second compound 10 µM
[7] = second compound 0.0316 µM, first compound 0.0316 µM
[8] = second compound 0.0316 µM, first compound 0.1 µM
[9] = second compound 0.0316 µM, first compound 0.316 µM
[10] = second compound 0.0316 µM, first compound 1 µM
[11] = second compound 0.0316 µM, first compound 3.16 µM
[12] = second compound 0.0316 µM, first compound 10 µM
[13] = second compound 0.1 µM, first compound 0.0316 µM
[14] = second compound 0.1 µM, first compound 0.1 µM
[15] = second compound 0.1 µM, first compound 0.316 µM
[16] = second compound 0.1 µM, first compound 1 µM
[17] = second compound 0.1 µM, first compound 3.16 µM
[18] = second compound 0.1 µM, first compound 10 µM
[19] = second compound 0.316 µM, first compound 0.0316 µM
[20] = second compound 0.316 µM, first compound 0.1 µM
[21] = second compound 0.316 µM, first compound 0.316 µM
[22] = second compound 0.316 µM, first compound 1 µM
[23] = second compound 0.316 µM, first compound 3.16 µM
[24] = second compound 0.316 µM, first compound 10 µM
[25] = second compound 1 µM, first compound 0.0316 µM
[26] = second compound 1 µM, first compound 0.1 µM
[27] = second compound 1 µM, first compound 0.316 µM
[28] = second compound 1 µM, first compound 1 µM
[29] = second compound 1 µM, first compound 3.16 µM
[30] = second compound 1 µM, first compound 10 µM
[31] = second compound 3.16 µM, first compound 0.0316 µM
[32] = second compound 3.16 µM, first compound 0.1 µM
[33] = second compound 3.16 µM, first compound 0.316 µM
[34] = second compound 3.16 µM, first compound 1 µM
[35] = second compound 3.16 µM, first compound 3.16 µM
[36] = second compound 3.16 µM, first compound 10 µM
[37] = second compound 10 µM, first compound 0.0316 µM
[38] = second compound 10 µM, first compound 0.1 µM
[39] = second compound 10 µM, first compound 0.316 µM
[40] = second compound 10 µM, first compound 1 µM
[41] = second compound 10 µM, first compound 3.16 µM
[42] = second compound 10 µM, first compound 10 µM
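Also: spheroids exposed to the compounds for 7 days.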
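For viability, T/C in this document: 100% = DMSO vehicle control viability.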

IC50 [1]: 73.9 nM
IC50 [2]: 85.6 nM
IC50 [3]: 47.2 nM
IC50 [4]: < 31.6 nM
IC50 [5]: < 31.6 nM
IC50 [6]: < 31.6 nM
SMILES: COc1cccc2c1C(=O)c1c(O)c3c(c(O)c1C2=O)CC(O)(C(=O)CO)CC3OC1CC(N)C(O)C(C)O1 (stereo not drawn) + CNC(=O)c1ccc(Nc2nc(OC3CCCC3)c3c(-c4ccc5nc(C)oc5c4)c[nH]c3n2)c(OC)c1
viability, T/C [7]: 65.8%
viability, T/C [8]: 40.8%
viability, T/C [9]: 29.2%
viability, T/C [10]: 1.04%
viability, T/C [11]: 0.15%
viability, T/C [12]: 0.15%
viability, T/C [13]: 66.7%
viability, T/C [14]: 45.7%
viability, T/C [15]: 23.5%
viability, T/C [16]: 0.86%
viability, T/C [17]: 0.16%
viability, T/C [18]: 3.76%
viability, T/C [19]: 55.9%
viability, T/C [20]: 38.6%
viability, T/C [21]: 16.9%
viability, T/C [22]: 0.22%
viability, T/C [23]: 0.17%
viability, T/C [24]: 6.83%
viability, T/C [25]: 32.1%
viability, T/C [26]: 28.1%
viability, T/C [27]: 17.6%
viability, T/C [28]: 0.21%
viability, T/C [29]: 1.61%
viability, T/C [30]: 0.16%
viability, T/C [31]: 33.2%
viability, T/C [32]: 27.8%
viability, T/C [33]: 13.3%
viability, T/C [34]: 0.19%
viability, T/C [35]: 1.44%
viability, T/C [36]: 11.7%
viability, T/C [37]: 28.5%
viability, T/C [38]: 30.5%
viability, T/C [39]: 15.8%
viability, T/C [40]: 0.27%
viability, T/C [41]: 3.05%
viability, T/C [42]: 5.77%

IC50 (curve of compound): > 1000 nM
SMILES: CCN1CCN(Cc2ccc(Nc3ncc(F)c(-c4cc(F)c5nc(C)n(C(C)C)c5c4)n3)nc2)CC1
viability, T/C (compound 0.00316 µM): 107% and 111%
viability, T/C (compound 0.01 µM): 83.9% and 104%
viability, T/C (compound 0.0316 µM): 89.7% and 115%
viability, T/C (compound 0.1 µM): 76.6% and 104%
viability, T/C (compound 0.316 µM): 97.1% and 112%
viability, T/C (compound 1 µM): 156% and 101%

IC50 (curve of compound): 83.5 nM and 85.2 nM
SMILES: C=CC(=O)Nc1cc(Nc2nccc(-c3cn(C)c4ccccc34)n2)c(OC)cc1N(C)CCN(C)C
viability, T/C (compound 0.000949 µM): 103% and 99.9%
viability, T/C (compound 0.003 µM): 99.5% and 112%
viability, T/C (compound 0.00949 µM): 81.5% and 83.4%
viability, T/C (compound 0.03 µM): 83.7% and 76.9%
viability, T/C (compound 0.0949 µM): 42.4% and 47.1%
viability, T/C (compound 0.3 µM): 24.2% and 20.6%

SMILES: Nc1ccn(C2OC(CO)C(O)C2(F)F)c(=O)n1 (stereo not drawn) + CN1CCN(c2cc(C(=O)Nc3cc4cc(-c5cnn(C)c5)ccc4cn3)ccn2)CC1
IC50 [1]: 489 nM
IC50 [2]: 463 nM
IC50 [3]: < 31.6 nM
IC50 [4]: < 31.6 nM
IC50 [5]: < 31.6 nM
IC50 [6]: < 31.6 nM
viability, T/C [7]: 80.5%
viability, T/C [8]: 72.9%
viability, T/C [9]: 58.7%
viability, T/C [10]: 37.6%
viability, T/C [11]: 20.5%
viability, T/C [12]: 26.1%
viability, T/C [13]: 62.2%
viability, T/C [14]: 70.5%
viability, T/C [15]: 61.4%
viability, T/C [16]: 26.8%
viability, T/C [17]: 19.9%
viability, T/C [18]: 24.1%
viability, T/C [19]: 14.3%
viability, T/C [20]: 14.6%
viability, T/C [21]: 11.8%
viability, T/C [22]: 9.83%
viability, T/C [23]: 11.6%
viability, T/C [24]: 11.8%
viability, T/C [25]: 0.24%
viability, T/C [26]: 0.22%
viability, T/C [27]: 0.33%
viability, T/C [28]: 0.18%
viability, T/C [29]: 0.28%
viability, T/C [30]: 0.2%
viability, T/C [31]: 0.26%
viability, T/C [32]: 0.23%
viability, T/C [33]: 0.16%
viability, T/C [34]: 0.18%
viability, T/C [35]: 0.19%
viability, T/C [36]: 0.43%
viability, T/C [37]: 0.14%
viability, T/C [38]: 0.19%
viability, T/C [39]: 0.23%
viability, T/C [40]: 0.2%
viability, T/C [41]: 0.25%
viability, T/C [42]: 1.04%
